The supplement of paper PMC10307832

Experiments:
Assay in all cases: relative viability (nuclei count vs DMSO), 5 days (fraction); higher = more cells survive
Neratinib + Linsitinib = compound: CCOc1cc2ncc(C#N)c(Nc3ccc(OCc4ccccn4)c(Cl)c3)c2cc1NC(=O)/C=C/CN(C)C [Neratinib] + C[C@]1(O)C[C@@H](c2nc(-c3ccc4ccc(-c5ccccc5)nc4c3)c3c(N)nccn32)C1 [Linsitinib] (partner 1 µM)
Procedure, shortened: (§1)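 Lung cancer cell lines were pin-tool dosed in 1536-well plates on the day after seeding, with either a lone drug or a fixed anchor-drug dose plus five library-drug doses (not always all listed) in √10 steps. Nuclei were counted on 4× images after 5 days. Relative viability is the ratio of treated-well to vehicle-well nuclei counts, with each value a median of duplicate plates.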

Neratinib + Alpelisib = compound: CCOc1cc2ncc(C#N)c(Nc3ccc(OCc4ccccn4)c(Cl)c3)c2cc1NC(=O)/C=C/CN(C)C [Neratinib] + Cc1nc(NC(=O)N2CCC[C@H]2C(N)=O)sc1-c1ccnc(C(C)(C)C(F)(F)F)c1 [Alpelisib] (partner 2 µM)
Procedure, shortened: as §1

Neratinib + Vorinostat = compound: CCOc1cc2ncc(C#N)c(Nc3ccc(OCc4ccccn4)c(Cl)c3)c2cc1NC(=O)/C=C/CN(C)C [Neratinib] + O=C(CCCCCCC(=O)Nc1ccccc1)NO [Vorinostat] (partner 1 µM)
Procedure, shortened: as §1

Neratinib + Navitoclax = compound: CCOc1cc2ncc(C#N)c(Nc3ccc(OCc4ccccn4)c(Cl)c3)c2cc1NC(=O)/C=C/CN(C)C [Neratinib] + CC1(C)CCC(c2ccc(Cl)cc2)=C(CN2CCN(c3ccc(C(=O)NS(=O)(=O)c4ccc(N[C@H](CCN5CCOCC5)CSc5ccccc5)c(S(=O)(=O)C(F)(F)F)c4)cc3)CC2)C1 [Navitoclax] (partner 0.5 µM)
Procedure, shortened: as §1

| Cell Line | relative viability (Neratinib + Linsitinib; first compound 0.01 µM) | relative viability (Neratinib + Linsitinib; first compound 0.03162 µM) | relative viability (Neratinib + Linsitinib; first compound 0.3162 µM) | relative viability (Neratinib + Linsitinib; first compound 1 µM) | relative viability (Neratinib + Alpelisib; first compound 0.01 µM) | relative viability (Neratinib + Alpelisib; first compound 0.03162 µM) | relative viability (Neratinib + Alpelisib; first compound 0.3162 µM) | relative viability (Neratinib + Alpelisib; first compound 1 µM) | relative viability (Neratinib + Vorinostat; first compound 0.01 µM) | relative viability (Neratinib + Vorinostat; first compound 0.03162 µM) | relative viability (Neratinib + Vorinostat; first compound 0.3162 µM) | relative viability (Neratinib + Vorinostat; first compound 1 µM) | relative viability (Neratinib + Navitoclax; first compound 0.01 µM) | relative viability (Neratinib + Navitoclax; first compound 0.03162 µM) | relative viability (Neratinib + Navitoclax; first compound 0.3162 µM) | relative viability (Neratinib + Navitoclax; first compound 1 µM) | relative viability (Neratinib + Linsitinib; first compound 0.1 µM) | relative viability (Neratinib + Alpelisib; first compound 0.1 µM) | relative viability (Neratinib + Vorinostat; first compound 0.1 µM) | relative viability (Neratinib + Navitoclax; first compound 0.1 µM) |
| --- | --- | --- | --- | --- | --- | --- | --- | --- | --- | --- | --- | --- | --- | --- | --- | --- | --- | --- | --- | --- |
| NCI-H727 | 0.244 | 0.282 | 0.286 | 0.255 | 0.525 | 0.542 | 0.441 | 0.276 | 1.05 | 1.1 | 1.11 | 0.899 | 0.446 | 0.443 | 0.4 | 0.267 | – | – | – | – |
| A-427 | 1.13 | 1.19 | 1.07 | 0.731 | 1.01 | 1.16 | – | 0.521 | 0.958 | – | – | 0.857 | 1.06 | 0.984 | 0.879 | 0.46 | 1.11 | 1.06 | 0.849 | 0.907 |
| COR-L 105 | 0.989 | 1.07 | 0.298 | 0.241 | 1.04 | 0.936 | 0.263 | 0.255 | 0.781 | 0.817 | 0.505 | 0.33 | 1.01 | 0.748 | 0.226 | 0.273 | 0.754 | 0.704 | 0.5 | 0.452 |
| NCI-H460 | 0.918 | 1.1 | 0.612 | 0.222 | 0.598 | 0.6 | 0.403 | 0.0801 | 0.779 | 0.984 | 0.716 | 0.518 | 1.37 | 1.3 | 1.11 | 0.441 | – | – | 0.429 | – |
| NCI-H2228 | 0.88 | 0.526 | 0.582 | 0.421 | 0.702 | 0.703 | 0.497 | 0.243 | 0.769 | 0.871 | 0.7 | 0.318 | 0.929 | 1.57 | 0.953 | 0.258 | 0.388 | 0.599 | 0.623 | 0.802 |
| HCC-44 | 0.724 | 0.697 | – | 0.691 | 0.97 | 0.95 | 0.838 | 0.754 | 1.11 | 1.09 | 1.1 | 1.09 | 1.1 | 0.978 | 0.951 | 0.917 | 0.641 | 0.702 | 1.12 | 0.867 |
| NCI-H520 | 1.04 | 0.981 | 0.742 | – | 0.955 | 1.14 | 0.819 | 0.547 | 0.759 | 0.686 | 0.615 | 0.509 | 1.1 | 1.42 | 1.03 | 0.779 | 1.08 | 0.905 | – | 0.965 |
| NCI-H1993 | 0.833 | 0.659 | 0.648 | 0.838 | 0.624 | 0.666 | 0.687 | 0.664 | 1.07 | 0.795 | 0.676 | 0.574 | 0.911 | 0.986 | 0.651 | 0.574 | 0.71 | 0.717 | 0.423 | 0.815 |
| NCI-H441 | 0.585 | 0.716 | 0.267 | 0.219 | 0.972 | 0.906 | 0.504 | 0.254 | 0.794 | 0.817 | 0.777 | 0.633 | 0.767 | 0.571 | 0.624 | 0.173 | 0.469 | – | 0.747 | 0.707 |
| EKVX | 1.12 | 0.85 | 0.276 | 0.141 | 0.878 | 0.973 | 0.284 | 0.161 | 0.889 | 0.801 | 0.276 | 0.308 | 0.999 | 1.04 | 0.305 | 0.205 | 0.842 | 0.645 | 0.498 | 0.831 |
| NCI-H1734 | 0.997 | 0.925 | 0.754 | 0.646 | 0.744 | – | 0.533 | 0.479 | 0.997 | 0.766 | 0.752 | 0.6 | 0.902 | 1.02 | 0.818 | 0.557 | 0.814 | 0.588 | 0.743 | 0.789 |
| EPLC-272H | 1.19 | 1.08 | 0.711 | 0.872 | 0.962 | 0.87 | 0.71 | 0.352 | 0.287 | 0.498 | 0.332 | 0.269 | 1.09 | 0.991 | 0.822 | 0.834 | 0.999 | 0.699 | 0.415 | 0.851 |
| NCI-H647 | 1.08 | 1.16 | 1.07 | 0.601 | 1.17 | 1.13 | 0.862 | 0.614 | 0.634 | 0.595 | 0.401 | 0.0941 | 1.14 | 1.41 | 1.12 | 0.383 | 1.14 | 0.958 | 0.488 | 1.05 |
| NCI-H2009 | 1.2 | 1.15 | 1.18 | – | 1.14 | 1.16 | 1.17 | 0.955 | 0.739 | 0.772 | 0.754 | 0.644 | 1.13 | 1.23 | 1.13 | 0.999 | 0.85 | 1.11 | 0.777 | 1.12 |
| NCI-H1793 | 0.863 | 1.03 | 0.596 | 0.364 | 0.708 | 0.664 | 0.519 | 0.296 | 0.765 | 0.849 | 0.487 | 0.355 | 0.757 | 0.497 | 0.352 | 0.217 | 0.494 | 0.472 | 0.473 | 0.371 |
| NCI-H1395 | 1.13 | 1.24 | 1.2 | 0.619 | 1.07 | 1.17 | 1.07 | 0.729 | 0.846 | 0.698 | 0.722 | 0.595 | 1.16 | 1.24 | 1.08 | 0.734 | 0.991 | 1.06 | – | 1.14 |
| HCC-827 | 1 | 0.971 | 0.931 | 0.221 | 1.05 | 1.11 | 0.583 | 0.182 | 0.929 | 0.975 | 0.395 | 0.205 | 1.02 | 1.09 | 0.924 | 0.201 | 0.933 | 0.967 | 0.817 | 1 |
